Target: T1, FN3KRP (Homo sapiens, UniProt Q9HA64)
T1 construct: directly in native proteomes; endogenous in cells; host or cells: MDA-MB-231
T1 sequence (Q9HA64 1-309): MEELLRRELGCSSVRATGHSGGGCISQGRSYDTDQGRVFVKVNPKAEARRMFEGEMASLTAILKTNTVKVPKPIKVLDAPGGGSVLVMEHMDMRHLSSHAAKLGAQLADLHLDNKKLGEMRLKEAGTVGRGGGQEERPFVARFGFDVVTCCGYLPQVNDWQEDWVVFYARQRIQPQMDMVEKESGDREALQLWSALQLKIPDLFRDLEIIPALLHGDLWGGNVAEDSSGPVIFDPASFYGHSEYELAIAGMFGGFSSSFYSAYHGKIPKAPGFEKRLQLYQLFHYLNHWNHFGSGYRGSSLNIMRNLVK
Assay: competitive isoTOP-ABPP, MDA-MB-231 soluble proteome
Format: binding
Settings: 100 μM LDE, 60 min; peptide ATGHSGGGC*ISQGR
Protocol: Here, we envisioned that isoTOP-ABPP could be advanced to discover and quantify reactions between cysteines in proteomes and any electrophilic compound. In this advanced, ‘competitive’ version of isoTOP-ABPP (FIG. 1a), a proteome is treated with an electrophile (experimental sample) or DMSO (control sample). Both proteomic samples are then labeled with the IA probe and conjugated by CuAAC to light and heavy azide-biotin tags, respectively. The light and heavy samples are then mixed and subjected to our described isoTOP-ABPP protocol for enrichment, identification, and quantification of IA-labeled cysteines^30. Electrophile-modified cysteines are quantified by measuring the MS1 chromatographic peak ratios (R values) for heavy (DMSO-treated) over light (electrophile-treated) samples, with higher R values reflecting greater sensitivity to the electrophile. In this format, competitive isoTOP-ABPP can assay electrophiles against 1000+ cysteines in parallel directly in native proteomes without requiring any chemical modification to the electrophiles themselves.
Competitive isoTOP-ABPP experiments were performed in quadruplicate using the soluble proteome of the human breast cancer cell line MDA-MB-231 cell line. Proteomes were treated with 100 μM HNE, 15d-PGJ2, or 2-HD, for 60 minutes, followed by the IA-probe (100 μM, 60 min) A total of ˜1400 cysteine reactivities were quantified across the aggregate data set, with at least 900 cysteine reactivities quantified for each LDE (FIG. 2a) more than 750 of which were quantified for all the three electrophiles.
The MDA-MB-231 cell proteome was treated with varying concentrations of HNE (5, 10, 50, 100 and 500 μM) for 60 min and then the IA-labeling profile of each reaction was quantitatively compared to a DMSO-control sample by isoTOP-ABPP.
HNE was purchased from EMD biosciences, 15d-PGJ2 was purchased from Cayman Chemicals and 2-HD was purchased from Santa Cruz Biotechnology. Proteome samples were diluted to a 4 mg protein/mL solution in PBS. For each profiling experiment, one aliquot of the proteome sample (0.5 mL) was treated with 100 μM of LDE using 5 μL of a 10 mM stock and the other aliquot was treated with 5 μL of either ethanol (for HNE and 15d-PGJ2) or DMSO (for 2-HD) as control. For the concentration-dependent profiling experiments using HNE, aliquots of the proteomes (0.5 mL each) were treated with 5, 10, 50, 100 and 500 μM of HNE using 5 μL of 0.5, 1.0, 5, 10 and 50 mM of stock solution, respectively. After 60 minutes of treatment at room temperature, both the LDE-treated and control aliquots were passed through a NAP-5 Sephadex column (GE healthcare) to remove any unreacted LDE. The volume of each aliquot was increased to 1 mL with the concentration at 2 mg/mL after this step.
Each of the control and LDE-treated proteome samples (˜2 mg protein/mL in 1 mL volume) was treated with 100 μM of IA-probe using 10 μL of a 10 mM stock in DMSO. The labeling reactions were incubated at room temperature for 1 hour. Click chemistry (acetylene-azide cycloaddition) was performed by the addition of 100 μM of either the Heavy-TEV-Tag (for the control sample) or Light-TEV-Tag (for the LDE-treated sample) (20 μL of a 5 mM stock), 1 mM TCEP (fresh 50× stock in water), 100 μM ligand (17× stock in DMSO:t-Butanol 1:4) and 1 mM CuSO4 (50× stock in water). Samples were allowed to react at room temperature for 1 hour. After the click chemistry step, the light and heavy-labeled samples were mixed together and centrifuged (5900×g, 4 min, 4° C.) to pellet the precipitated proteins.
The pellets were washed twice in cold MeOH, after which the pellet was solubilized in PBS containing 1.2% SDS via sonication and heating (5 min, 80° C.). Samples were subjected to streptavidin enrichment of probe-labeled proteins, sequential on-bead trypsin and TEV digestion, and liquid chromatography-mass spectrometry (LC-MS) analysis according to the published isoTOP-ABPP protocol^30. […]

Structure (SMILES)	R value (isoTOP-ABPP ratio heavy/light) for IA-labeled cysteine of FN3KRP
CCCCCCCCCCCCC/C=C/C=O [2-HD, 2-trans-hexadecenal]	1.03
CCCCCC(O)/C=C/C=O (stereo not drawn) [4-HNE, 4-Hydroxynonenal]	>15
CCCCC/C=C/C=C1/C(=O)C=C[C@@H]1C/C=C\CCCC(=O)O [PGJ2, 15-deoxy-Δ12,14-prostaglandin J2]	1.62

Reference: patent US10782295B2, “Cysteine-reactive ligand discovery in proteomes” (THE SCRIPPS RESEARCH INSTITUTE, priority 2013, dated 2020)
